Experiment: Cytotoxicity against human WHCO1 cells after 48 hrs by MTT assay
Assay type: functional, cell-based
Settings: WHCO1, 48 h

First: COC(=O)[C@H]1[C@H]2[C@H]([C@H](I)CC[C@@H]2C(=O)OC)N(c2ccccc2)[C@H]1c1ccccc1 (racemic)
Second: COC(=O)[C@H]1[C@H]2[C@H]([C@H](I)CC[C@@H]2C(=O)OC)N(c2ccc(C)cc2)[C@H]1c1ccccc1 (racemic)
The IC50 of the first is 2.2-fold higher: 88.1 µM for the first, 40.3 µM for the second. The second is the more potent here.

`COC(=O)[C@H]1[C@H]2[C@H]([C@H](I)CC[C@@H]2C(=O)OC)N(c2ccc(C)cc2)[C@H]1c1ccc(OC)cc1` (racemic) and `COC(=O)[C@H]1[C@H]2[C@H]([C@H](I)CC[C@@H]2C(=O)OC)N(c2ccccc2)[C@H]1c1ccc(OC)cc1` (racemic) are within 1.5-fold of each other in IC50: 37.8 µM for the first, 37.1 µM for the second.

Going from `COC(=O)[C@H]1[C@H]2[C@H]([C@H](I)CC[C@@H]2C(=O)OC)N(c2ccccc2)[C@H]1c1ccc(Cl)cc1` (racemic) to `O=C1NC(=O)[C@@H]2CC[C@@H](I)[C@H]3[C@@H]2[C@@H]1[C@@H](c1ccc(Cl)cc1)N3c1ccccc1` (racemic), the IC50 falls from 36.8 µM to 17.6 µM (2.1-fold). The second is the more potent here.

`Cc1ccc([C@@H]2[C@@H]3C(=O)NC(=O)[C@@H]4CC[C@@H](I)[C@@H]([C@H]34)N2c2ccc(C)cc2)cc1` (racemic) and `Cc1ccc(N2[C@@H]3[C@@H]4[C@@H](C(=O)NC(=O)[C@@H]4CC[C@H]3I)[C@H]2c2ccc(Cl)cc2)cc1` (racemic) are within 1.5-fold of each other in IC50: 14.1 µM for the first, 13 µM for the second.
